# According to patent EP0175180A1, “Histargin-related compounds, a process for their preparation and their use as medicaments” (MICROBIAL CHEMISTRY RESEARCH FOUNDATION, priority 1984, dated 1986):
# Experiments:
# carboxypeptidase B = molecular target: T1, carboxypeptidase B (Sus scrofa, UniProt P09955); assay: Inhibition of the action of carboxypeptidase B; type: biochemical; details: carboxypeptidase B purified from swine pancreas, 37°C, 30 minutes, pH 8.0; read-out: CP-B inhibition IC50 (converted)
# T1 construct: carboxypeptidase B purified from swine pancreas; purchased C; F. Boehringer & Soehne GmbH, Mannheim; host or cells: swine pancreas
# T1 sequence (P09955 111-416): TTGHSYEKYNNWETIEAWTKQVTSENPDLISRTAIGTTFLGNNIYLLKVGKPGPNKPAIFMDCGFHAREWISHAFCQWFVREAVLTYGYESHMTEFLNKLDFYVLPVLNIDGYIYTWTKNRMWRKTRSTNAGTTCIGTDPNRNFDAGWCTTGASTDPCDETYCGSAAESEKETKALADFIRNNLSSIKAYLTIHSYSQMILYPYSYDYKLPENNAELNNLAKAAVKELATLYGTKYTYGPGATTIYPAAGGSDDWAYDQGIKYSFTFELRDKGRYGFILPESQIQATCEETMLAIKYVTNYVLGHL
# Method: The inhibition of the action of carboxypeptidase B was determined by an improved version of the method for determination of the activity of angiotensin converting enzyme described in M. Hayakari et al., Analytical Biochemistry, 84, 361 - 369 (1978). The method proceeds as follows: A mixture of 0.05 mℓ of 0.05 M fibril-L-lysine (prepared by Tanpakushitsu Kenkyu Shoreikai) with 0.25 mℓ of 0.05 M Tris-HCℓ buffer solution (pH 8.0) and 0.15 mℓ of a solution containing a test compound was heated at 37°C for 3 minutes. To the heated solution, 0.05 mℓ of an aqueous solution containing 1 ug/mℓ of carboxypeptidase B purified from swine pancreas (product of C. F. Boehringer G Sohne GmbH, Mannheim) and 1 mg/mℓ of bovine albumin was added, and the mixture was subjected to reaction at 37°C for 30 minutes. The reaction was quenched by adding 0.03 mℓ of 1 N caustic soda. Fifteen minutes later, 2 mℓ of 0.05 M sodium phosphate buffer solution (pH 7.2) was added to the reaction mixture, and color reaction was performed by addition of 2 mℓ of 1% cyanuric chloride in methyl cellosolve. The mixture was left at room temperature for 15 minutes and the absorbance (a) at 382 nm was measured. The absorbance (b) of a control containing no test compound was also measured by repeating the same procedure. Blank tests were also conducted to determine the corresponding absorbances (a') and (b').
# In each blank teat, the color reaction was performed by adding the enzyme solution after caustic soda so that no enzymatic reaction would take place. The percent inhibition of the action of carboxypeptidase B was calculated by the formula: [formula]
# carboxypeptidase A = molecular target: T2, carboxypeptidase A (Bos taurus, UniProt P00730); assay: Inhibition of the action of carboxypeptidase A; type: biochemical; details: carboxypeptidase A purified from bovine pancreas, 37°C, 30 minutes, pH 7.5; read-out: CP-A inhibition IC50 (converted)
# T2 construct: carboxypeptidase A purified from bovine pancreas; purchased Sigma Chemical Co; host or cells: bovine pancreas
# T2 sequence (P00730 111-419): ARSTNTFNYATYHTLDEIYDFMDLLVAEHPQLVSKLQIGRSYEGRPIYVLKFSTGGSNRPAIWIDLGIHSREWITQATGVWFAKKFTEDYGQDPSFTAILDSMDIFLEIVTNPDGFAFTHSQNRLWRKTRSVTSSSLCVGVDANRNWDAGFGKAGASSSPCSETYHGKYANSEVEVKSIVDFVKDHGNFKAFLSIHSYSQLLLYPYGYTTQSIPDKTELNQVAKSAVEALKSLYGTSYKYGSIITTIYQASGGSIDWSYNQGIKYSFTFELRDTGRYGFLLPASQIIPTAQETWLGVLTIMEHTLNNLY
# Method: (2) Inhibition of the action of carboxypeptidase A The inhibition of the action of carboxypeptidase A was determined by the method described in T. Tanaka et al., The Journal of Antibiotics, 37, 682 - 684 (1984). The method proceeds as follows: A mixture of 0.05 mℓ of 0.01 M fibril-L-phenylalanine (product of Sigma Chemical Co.) with 0.25 mℓ of 0.05 M Tris-HCℓ buffer solution (pH 7.5) containing 0.9 M NaCℓ. and 0.15 mℓ of a solution containing a teat compound was heated at 37°C for 3 minutes. To the heated solution, 0.05 mℓ of a diluted aqueous solution of carboxypeptidase A purified from bovine pancreas (product of Sigma Chemical Co.) which also contained 1 mg/mℓ of purified bovine albumin was added and the mixture was enbjected to reaction at 37°C for 30 minutes. The reaction was quenched by adding 0.03 mℓ of 1 M caustic soda. Fifteen minutes later, 2 mℓ of 0.06 M sodium phosphate buffer solution (pH 7.2) was added to the reaction mixture, and color reaction was performed by addition of 2 mℓ of 1% cyanuric chloride in methyl cellosolve. The mixture was left at room temperature for 15 minutes and the absorbance (a) at 382 nm was measured. The absorbance (b) of a control containing no test compound was also measured by repeating the same procedure. Blank tests were also conducted to determine the corresponding absorbances (a') and (b'). In each blank test, the color reaction was performed by adding the enzyme solution after caustic soda so that no enzymatic reaction would take place. The percent inhibition of the action of carboxypeptidase A was calculated by the formula: [formula]
# rats = assay: Acute toxicity test by intraperitoneal administration; type: in vivo
# Description: Each of the compounds in accordance with the present invention has low toxicity and can safely be used as a medicine. The results of an acute toxicity test conducted by intraperitoneal administration of rats with compound Nos. la to 5a are summarized in Table 5.
# [1] = molecular target: T3, angiotensin converting enzyme (Bos taurus, UniProt P12820); assay: Inhibition of the action of angiotensin converting enzyme; type: biochemical; details: enzyme partially purified from a bovine lung, 37°C, 30 minutes; read-out: IC50 (50% inhibition concentration) (converted)
# T3 construct: angiotensin converting enzyme partially purified from a bovine lung; from tissue; host or cells: bovine lung
# T3 sequence (P12820 29-1306): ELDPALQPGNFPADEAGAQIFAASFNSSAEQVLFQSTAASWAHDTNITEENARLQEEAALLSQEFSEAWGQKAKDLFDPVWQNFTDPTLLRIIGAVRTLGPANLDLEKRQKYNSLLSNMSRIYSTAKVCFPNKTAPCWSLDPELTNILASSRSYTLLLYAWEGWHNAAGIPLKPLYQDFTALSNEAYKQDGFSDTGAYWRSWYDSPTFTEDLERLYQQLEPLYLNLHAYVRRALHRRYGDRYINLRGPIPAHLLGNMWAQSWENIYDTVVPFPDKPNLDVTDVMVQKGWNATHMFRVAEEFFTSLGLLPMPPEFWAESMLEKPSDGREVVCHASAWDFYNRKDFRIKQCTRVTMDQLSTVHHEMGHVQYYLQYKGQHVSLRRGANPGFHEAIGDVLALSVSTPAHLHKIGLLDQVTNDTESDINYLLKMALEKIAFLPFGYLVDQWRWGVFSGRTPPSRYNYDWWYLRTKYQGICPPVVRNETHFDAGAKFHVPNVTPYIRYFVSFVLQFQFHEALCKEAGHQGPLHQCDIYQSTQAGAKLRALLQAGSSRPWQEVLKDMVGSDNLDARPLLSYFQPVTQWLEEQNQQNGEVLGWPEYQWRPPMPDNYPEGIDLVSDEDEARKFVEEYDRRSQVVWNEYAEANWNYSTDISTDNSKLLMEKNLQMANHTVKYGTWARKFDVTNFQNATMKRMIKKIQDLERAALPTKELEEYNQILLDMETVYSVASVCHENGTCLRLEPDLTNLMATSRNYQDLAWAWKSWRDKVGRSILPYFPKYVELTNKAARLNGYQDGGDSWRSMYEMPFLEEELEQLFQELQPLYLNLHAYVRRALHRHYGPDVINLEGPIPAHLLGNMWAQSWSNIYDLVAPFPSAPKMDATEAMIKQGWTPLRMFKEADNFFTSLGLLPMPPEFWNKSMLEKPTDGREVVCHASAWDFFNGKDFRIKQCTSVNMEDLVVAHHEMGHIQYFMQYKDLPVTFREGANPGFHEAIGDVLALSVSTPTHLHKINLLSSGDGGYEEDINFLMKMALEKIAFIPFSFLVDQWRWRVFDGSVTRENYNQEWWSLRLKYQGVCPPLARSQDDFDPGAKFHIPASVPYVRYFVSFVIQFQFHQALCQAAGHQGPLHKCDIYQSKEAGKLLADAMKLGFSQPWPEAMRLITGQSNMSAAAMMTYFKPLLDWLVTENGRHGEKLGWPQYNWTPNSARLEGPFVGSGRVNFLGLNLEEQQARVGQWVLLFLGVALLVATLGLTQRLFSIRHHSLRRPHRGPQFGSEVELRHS
# Method: The inhibition of the action of angiotensin converting enzyme was determined by an inproved version of the method for determination of the activity of angiotensin converting enzyme described in M. Hayakari et al., Analytical Biochemistry, 84, 361 - 369 (1978). The method proceeds as follows: Substrate fibril-L-histidyl-L-leucine was dissolved at a concentration of 5 mg/mt in Tris-HCℓ buffer solution (0.5 M, pH 8.0) containing 0.3 M NaCℓ. A mixture of this solution (0.05 mℓ) and 0.40 mℓ of a solution containing a test compound was heated at 37°C for 3 minutes. To the heated solution, 0.05 ml of a solution containing angiotensin converting enzyme partially purified from a bovine lung was added, and the mixture was subjected to reaction at 37°C for 30 minutes. The reaction was quenched by adding 0.03 mℓ of 1 N caustic soda. […] The mixture was left at room temperature for 15 minutes and the absorbance (a) at 382 nm was measured. The absorbance (b) of a control containing no test compound was also measured by repeating the same procedure. Blank tests were also conducted to determine the corresponding absorbances (a') and (b'). […] The percent inhibition of the action of angiotensin converting enzyme was calculated by the formula: [formula]
# [2] = intraperitoneal administration, rats, dose stated in each result
SMILES,IC50 (carboxypeptidase B),IC50 (carboxypeptidase A),Test results (acute toxicity) (rats; [2]),"Test results (acute toxicity) (rats; rat, in vivo, ip)",IC50 [1]
"CCOC(=O)[C@H](Cc1ccccc1)NCCN[C@@H](Cc1c[nH]cn1)C(=O)O [7a, L-His-C2-L-Phe-OEt]",> 534 µM,390 µM,–,–,–
"O=C(O)[C@H](Cc1c[nH]cn1)NCCN1CCC[C@H]1C(=O)O [4a, L-His-C2-L-Pro]",> 675 µM,> 675 µM,No toxicity observed upon administration of 400 mg/kg.,–,–
"NCCC[C@H](NCCN[C@@H](Cc1c[nH]cn1)C(=O)O)C(=O)O [6a, L-His-C2-L-Orn]",357 µM,> 638 µM,–,–,–
"NCCCC[C@H](NCCN[C@@H](Cc1c[nH]cn1)C(=O)O)C(=O)O [3a, L-His-C2-L-Lys]",> 611 µM,> 611 µM,No toxicity observed upon administration of 400 mg/kg.,–,–
"O=C(O)[C@H](Cc1ccccc1)NCCN[C@@H](Cc1c[nH]cn1)C(=O)O [2a, L-His-C2-L-Phe]",185 µM,24.3 µM,No toxicity observed upon administration of 100 mg/kg.,–,–
"O=C(O)C[C@H](NCCN[C@@H](Cc1c[nH]cn1)C(=O)O)C(=O)O [5a, L-His-C2-L-Asp]",> 636 µM,> 636 µM,–,No toxicity observed upon administration of 400 mg/kg.,1.59 µM
"O=C(O)[C@H](Cc1c[nH]cn1)NCCN[C@@H](Cc1c[nH]cn1)C(=O)O [1a, L-His-C2-L-His]",178 µM,> 595 µM,–,No toxicity observed upon administration of 400 mg/kg.,2.08 µM
